Experimental data published in US20260315464A1, “COMPOSITIONS, METHODS, AND SYSTEMS FOR MODULATING SPLICING OF MSH3” (REVIR THERAPEUTICS, INC., priority 2023, published 2026).

Test system: MSH3
Assay: QPCR assay for levels of MSH3 upon compound treatment in HEK293T or AD293 cells (fold-change of MSH3 transcript, EC50 of MSH3 downregulation; total MSH3 exons 13/14, exons 20/21; Table 8)
Assay type: cell-based
Conditions: for mrna remaining at 1 µM / mrna remaining at 10 µM: Homo sapiens, fold-change of the MSH3 transcript, normalized to GAPDH; for mrna remaining at 1 µM: 1 μM compound; for mrna remaining at 10 µM: 10 μM compound; for EC50: EC50 of MSH3 downregulation, XtalPi
Summary of the method: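 MSH3 mRNA was quantified by TaqMan qPCR covering exons 13/14, exons 20/21, exon 13/PE14A and exon 20/PE21A, with GAPDH as reference. Cells used were HEK293T or AD293, treated with compound at 1 μM and […].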

Row | SMILES | mrna remaining at 1 µM [%] | mrna remaining at 10 µM [%] | EC50 [nM]
1 | Cc1nn(C)cc1-c1ccc2c(c1)C(=O)N(c1ccc(N(C)[C@H]3C[C@]4(C)CC[C@](C)(C3)N4)nn1)C2 [Compound 423, 6-(1,3-dimethyl-1H-pyrazol-4-yl)-2-(6-(((1R,3s,5S)-1,5-dimethyl-8-azabicyclo[3.2.1]octan-3-yl)(methyl)amino)pyridazin-3-yl)isoindolin-1-one] | 37 | 10 | 
2 | Cn1nc(Cl)c(-c2cnc3c(c2)C(=O)N(c2ccc(N4CCN5CCC[C@H]5C4)nn2)C3)n1 [Compound 620, (S)-3-(5-chloro-2-methyl-2H-1,2,3-triazol-4-yl)-6-(6-(hexahydropyrrolo[1,2-a]pyrazin-2(1H)-yl)pyridazin-3-yl)-6,7-dihydro-5H-pyrrolo[3,4-b]pyridin-5-one] | 93 | 55 | 
3 | CN(c1ccc(N2Cc3ncc(-c4cn(C)nc4C(F)(F)F)cc3C2=O)nn1)[C@H]1C[C@]2(C)CC[C@](C)(C1)N2 [Compound 183, 6-(6-(((1R,3s,5S)-1,5-dimethyl-8-azabicyclo[3.2.1]octan-3-yl)(methyl)amino)pyridazin-3-yl)-3-(1-methyl-3-(trifluoromethyl)-1H-pyrazol-4-yl)-6,7-dihydro-5H-pyrrolo[3,4-b]pyridin-5-one] | 99 | 28 | 
4 | Cc1nn(C)nc1-c1cc(F)c2c(c1)C(=O)N(c1ccc(N3CCNC4(CC4)C3)nn1)C2 [Compound 650, 2-(6-(4,7-diazaspiro[2.5]octan-7-yl)pyridazin-3-yl)-6-(2,5-dimethyl-2H-1,2,3-triazol-4-yl)-4-fluoroisoindolin-1-one] | 97 | 75 | 
5 | Cc1nn(C)nc1-c1cnc2c(c1)C(=O)N(c1ccc(OC3CC(C)(C)NC4(CC4)C3)nn1)C2 (stereo not drawn) [Compound 228, 3-(2,5-dimethyl-2H-1,2,3-triazol-4-yl)-6-(6-((5,5-dimethyl-4-azaspiro[2.5]octan-7-yl)oxy)pyridazin-3-yl)-6,7-dihydro-5H-pyrrolo[3,4-b]pyridin-5-one] | 58 | 37 | 792
6 | Cc1nc(C)c(-c2cnc3c(c2)C(=O)N(c2ccc(O[C@H]4C[C@]5(C)CC[C@](C)(C4)N5)nn2)C3)s1 [Compound 174, 6-(6-(((1R,3s,5S)-1,5-dimethyl-8-azabicyclo[3.2.1]octan-3-yl)oxy)pyridazin-3-yl)-3-(2,4-dimethylthiazol-5-yl)-6,7-dihydro-5H-pyrrolo[3,4-b]pyridin-5-one] | 103 | 62 | 
7 | Cc1nn(C)nc1-c1cnc2c(n1)C(=O)N(c1ccc(OC3CC(C)(C)NC(C)(C)C3)nn1)C2 [Compound 624, 3-(2,5-dimethyl-2H-1,2,3-triazol-4-yl)-6-(6-((2,2,6,6-tetramethylpiperidin-4-yl)oxy)pyridazin-3-yl)-6,7-dihydro-5H-pyrrolo[3,4-b]pyrazin-5-one] | 60 | 12 | 
8 | Cn1cc(-c2cc3c(cn2)CN(c2ccc(O[C@H]4C[C@]5(C)CC[C@](C)(C4)N5)nn2)C3=O)c(F)n1 [Compound 107, 2-(6-(((1R,3s,5S)-1,5-dimethyl-8-azabicyclo[3.2.1]octan-3-yl)oxy)pyridazin-3-yl)-6-(3-fluoro-1-methyl-1H-pyrazol-4-yl)-2,3-dihydro-1H-pyrrolo[3,4-c]pyridin-1-one] | 97 | 75 | 
9 | Cn1nc(Cl)c(-c2cnc3c(c2)C(=O)N(c2ccc(O[C@H]4C[C@]5(C)CC[C@](C)(C4)N5)nn2)C3)n1 [Compound 480, 3-(5-chloro-2-methyl-2H-1,2,3-triazol-4-yl)-6-(6-(((1R,3s,5S)-1,5-dimethyl-8-azabicyclo[3.2.1]octan-3-yl)oxy)pyridazin-3-yl)-6,7-dihydro-5H-pyrrolo[3,4-b]pyridin-5-one] | 15 | 10 | 363
10 | Cc1nn(C)cc1-c1cnc2c(n1)C(=O)N(c1ccc(O[C@H]3C[C@]4(C)CC[C@](C)(C3)N4)nn1)C2 [Compound 622, 3-(1,3-dimethyl-1H-pyrazol-4-yl)-6-(6-(((1R,3s,5S)-1,5-dimethyl-8-azabicyclo[3.2.1]octan-3-yl)oxy)pyridazin-3-yl)-6,7-dihydro-5H-pyrrolo[3,4-b]pyrazin-5-one] | 76 | 30 | 
11 | Cc1nn(C)nc1-c1cc(F)c2c(c1)C(=O)N(c1ccc(N(C)C3CC(C)(C)NC(C)(C)C3)nn1)C2 [Compound 293, 6-(2,5-dimethyl-2H-1,2,3-triazol-4-yl)-4-fluoro-2-(6-(methyl(2,2,6,6-tetramethylpiperidin-4-yl)amino)pyridazin-3-yl)isoindolin-1-one] | 54 | 12 | ~1060
12 | Cc1nn(C)cc1-c1cc2c(cn1)CN(c1ccc(N(C)C3CC(C)(C)NC(C)(C)C3)nn1)C2=O [Compound 51, 6-(1,3-dimethyl-1H-pyrazol-4-yl)-2-(6-(methyl(2,2,6,6-tetramethylpiperidin-4-yl)amino)pyridazin-3-yl)-2,3-dihydro-1H-pyrrolo[3,4-c]pyridin-1-one] | 94 | 26 | 
13 | Cc1nc(C)c(-c2cc(F)c3c(c2)C(=O)N(c2ccc(N(C)[C@H]4C[C@]5(C)CC[C@](C)(C4)N5)nn2)C3)s1 [Compound 289, 2-(6-(((1R,3s,5S)-1,5-dimethyl-8-azabicyclo[3.2.1]octan-3-yl)(methyl)amino)pyridazin-3-yl)-6-(2,4-dimethylthiazol-5-yl)-4-fluoroisoindolin-1-one] | 73 | 22 | 
14 | Cn1ncc(-c2cnc3c(c2)C(=O)N(c2ccc(S[C@H]4C[C@]5(C)CC[C@](C)(C4)N5)nn2)C3)n1 [Compound 606, 6-(6-(((1R,3s,5S)-1,5-dimethyl-8-azabicyclo[3.2.1]octan-3-yl)thio)pyridazin-3-yl)-3-(2-methyl-2H-1,2,3-triazol-4-yl)-6,7-dihydro-5H-pyrrolo[3,4-b]pyridin-5-one] | 57 | 25 | 
15 | CN(c1ccc(N2Cc3c(F)cc(-c4cnn(CC(C)(C)O)n4)cc3C2=O)nn1)[C@H]1C[C@]2(C)CC[C@](C)(C1)N2 [Compound 634, 2-(6-(((1R,3s,5S)-1,5-dimethyl-8-azabicyclo[3.2.1]octan-3-yl)(methyl)amino)pyridazin-3-yl)-4-fluoro-6-(2-(2-hydroxy-2-methylpropyl)-2H-1,2,3-triazol-4-yl)isoindolin-1-one] | 63 | 76 | 
16 | CC(C)[C@@H]1CN(c2ccc(N3Cc4c(F)cc(-c5nn(C)nc5Cl)cc4C3=O)nn2)CCN1 [Compound 638, (R)-6-(5-chloro-2-methyl-2H-1,2,3-triazol-4-yl)-4-fluoro-2-(6-(3-isopropylpiperazin-1-yl)pyridazin-3-yl)isoindolin-1-one] | 112 | 22 | 
17 | Cc1nn(C)nc1-c1cnc2c(c1)C(=O)N(c1ccc(S[C@H]3C[C@]4(C)CC[C@](C)(C3)N4)nn1)C2 [Compound 611, 3-(2,5-dimethyl-2H-1,2,3-triazol-4-yl)-6-(6-(((1R,3s,5S)-1,5-dimethyl-8-azabicyclo[3.2.1]octan-3-yl)thio)pyridazin-3-yl)-6,7-dihydro-5H-pyrrolo[3,4-b]pyridin-5-one] | 90 | 79 | 
18 | CCN1CC2CN(c3ccc(N4Cc5c(F)cc(-c6nn(C)nc6Cl)cc5C4=O)nn3)CC2C1 (stereo not drawn) [Compound 654, 6-(5-chloro-2-methyl-2H-1,2,3-triazol-4-yl)-2-(6-(5-ethylhexahydropyrrolo[3,4-c]pyrrol-2(1H)-yl)pyridazin-3-yl)-4-fluoroisoindolin-1-one] | 90 | 61 | 
19 | Cc1nc(C)c(-c2cnc3c(c2)C(=O)N(c2cnc(N(C)[C@H]4C[C@]5(C)CC[C@](C)(C4)N5)nn2)C3)s1 [Compound 200, 6-(3-(((1R,3s,5S)-1,5-dimethyl-8-azabicyclo[3.2.1]octan-3-yl)(methyl)amino)-1,2,4-triazin-6-yl)-3-(2,4-dimethylthiazol-5-yl)-6,7-dihydro-5H-pyrrolo[3,4-b]pyridin-5-one] | 53 | 53 | 
20 | CC[C@]12CC[C@](C)(C[C@@H](Oc3ccc(N4Cc5ncc(-c6cn(C)nc6C)cc5C4=O)nn3)C1)N2 [Compound 240, 3-(1,3-dimethyl-1H-pyrazol-4-yl)-6-(6-(((1S,3R,5R)-1-ethyl-5-methyl-8-azabicyclo[3.2.1]octan-3-yl)oxy)pyridazin-3-yl)-6,7-dihydro-5H-pyrrolo[3,4-b]pyridin-5-one] | 87 | 16 | 2310
21 | Cn1cc(-c2cc3c(cn2)CN(c2ccc(O[C@H]4C[C@]5(C)CC[C@](C)(C4)N5)nn2)C3=O)c(Cl)n1 [Compound 458, 6-(3-chloro-1-methyl-1H-pyrazol-4-yl)-2-(6-(((1R,3s,5S)-1,5-dimethyl-8-azabicyclo[3.2.1]octan-3-yl)oxy)pyridazin-3-yl)-2,3-dihydro-1H-pyrrolo[3,4-c]pyridin-1-one] | 40 | 11 | 820
22 | Cn1ncc(-c2cc(F)c3c(c2)C(=O)N(c2ccc(O[C@H]4C[C@]5(C)CC[C@](C)(C4)N5)nn2)C3)n1 [Compound 631, 2-(6-(((1R,3s,5S)-1,5-dimethyl-8-azabicyclo[3.2.1]octan-3-yl)oxy)pyridazin-3-yl)-4-fluoro-6-(2-methyl-2H-1,2,3-triazol-4-yl)isoindolin-1-one] | 86 | 69 | 
23 | CN(c1ccc(N2Cc3c(C#N)cc(-c4nn(C)nc4Cl)cc3C2=O)nn1)C1CC(C)(C)NC(C)(C)C1 [Compound 682, 6-(5-chloro-2-methyl-2H-1,2,3-triazol-4-yl)-2-(6-(methyl(2,2,6,6-tetramethylpiperidin-4-yl)amino)pyridazin-3-yl)-1-oxoisoindoline-4-carbonitrile] | 77 | 17 | 
